Results reported in PubChem BioAssay AID330 (DTP/NCI, 2004).
Where “and” joins values, the source holds several entries; their conditions need not be identical. Equal entries are not always repeated. Inconclusive results and toxic doses are left out.

System: P388 leukemia ip, CD2F1 mice, survival T/C
Test: NCI In Vivo Anticancer Drug Screen. Data for tumor model P388 Leukemia (intraperitoneal) in CD2F1 (CDF1) mice
Details: endpoint: median survival time, higher = longer survival
Summary of the method: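 Mice carrying the transplanted tumor received test compound or vehicle. Survival was recorded in each group, and the value is the treated-group measurement divided by that of the vehicle-treated control group.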

[1] = dose: 25.0 mg/kg/injection, schedule: Q01DX009 (ip), vehicle: saline with Tween-80
[2] = dose: 12.5 mg/kg/injection, schedule: Q01DX009 (ip), vehicle: saline with Tween-80
[3] = dose: 50.0 mg/kg/injection, schedule: Q01DX009 (ip), vehicle: saline with Tween-80
[4] = dose: 200.0 mg/kg/injection, schedule: Q01DX009 (ip), vehicle: saline with Tween-80
[5] = dose: 60.0 mg/kg/injection, schedule: Q01DX005 (ip), vehicle: saline with Tween-80
[6] = dose: 120.0 mg/kg/injection, schedule: Q01DX005 (ip), vehicle: saline with Tween-80
[7] = dose: 240.0 mg/kg/injection, schedule: Q01DX005 (ip), vehicle: saline with Tween-80
[8] = dose: 100.0 mg/kg/injection, schedule: Q01DX005 (ip), vehicle: saline with Tween-80
[9] = dose: 200.0 mg/kg/injection, schedule: Q01DX005 (ip), vehicle: saline with Tween-80
[10] = dose: 50.0 mg/kg/injection, schedule: Q01DX009 (ip), vehicle: saline
[11] = dose: 100.0 mg/kg/injection, schedule: Q01DX009 (ip), vehicle: saline
[12] = dose: 60.0 mg/kg/injection, schedule: Q01DX005 (ip), vehicle: Klucel (hydroxypropylcellulose) (HPC)
[13] = dose: 120.0 mg/kg/injection, schedule: Q01DX005 (ip), vehicle: Klucel (hydroxypropylcellulose) (HPC)
[14] = dose: 6.25 mg/kg/injection, schedule: Q01DX009 (ip), vehicle: saline with Tween-80
[15] = dose: 3.12 mg/kg/injection, schedule: Q01DX009 (ip), vehicle: saline
[16] = dose: 6.25 mg/kg/injection, schedule: Q01DX009 (ip), vehicle: saline
[17] = dose: 100.0 mg/kg/injection, schedule: Q01DX009 (ip), vehicle: saline with Tween-80

Structure (SMILES): COC1CC(C)C(OC)c2cc(O)cc(c2O)NC(=O)/C(C)=C/C=C\C(C)C(OC(N)=O)/C(C)=C\C(C)C1OC (configuration not stated)
- T/C (dose: 0.63 mg/kg/injection, schedule: Q01DX009 (ip), vehicle: saline + alcohol): 116 % of control
- T/C (dose: 1.25 mg/kg/injection, schedule: Q01DX009 (sc), vehicle: saline + alcohol): 99 % of control
- T/C (dose: 2.5 mg/kg/injection, schedule: Q01DX009 (sc), vehicle: saline + alcohol): 93 % of control
- T/C (dose: 5.0 mg/kg/injection, schedule: Q01DX009 (sc), vehicle: saline + Tween-80 + alcohol): 94 % of control
- T/C (dose: 5.0 mg/kg/injection, schedule: Q01DX009 (sc), vehicle: saline + alcohol): 98 % of control
- T/C (dose: 10.0 mg/kg/injection, schedule: Q01DX009 (sc), vehicle: saline + alcohol): 90 % of control
- T/C (dose: 20.0 mg/kg/injection, schedule: Q01DX009 (ip), vehicle: saline + alcohol): 160 % of control
- T/C (dose: 20.0 mg/kg/injection, schedule: Q01DX009 (oral), vehicle: saline + Tween-80 + alcohol): 92 % of control
- T/C (dose: 40.0 mg/kg/injection, schedule: Q01DX009 (oral), vehicle: saline + Tween-80 + alcohol): 93 % of control
- T/C (dose: 80.0 mg/kg/injection, schedule: Q01DX009 (oral), vehicle: saline + Tween-80 + alcohol): 92 % of control
- T/C (dose: 160.0 mg/kg/injection, schedule: Q01DX009 (oral), vehicle: saline + Tween-80 + alcohol): 94 % of control
- T/C (dose: 240.0 mg/kg/injection, schedule: Q01DX009 (oral), vehicle: saline + Tween-80 + alcohol): 103 % of control

Structure (SMILES): OC(Cc1ccnc2ccccc12)C(Cl)(Cl)Cl (configuration not stated)
- T/C (dose: 200.0 mg/kg/injection, schedule: Q04DX003 (ip), vehicle: saline with Tween-80): 104 % of control
- T/C (dose: 400.0 mg/kg/injection, schedule: Q04DX003 (ip), vehicle: saline with Tween-80): 90 % of control

Structure (SMILES): Cn1cnc([N+](=O)[O-])c1Sc1nc(N)nc2nc[nH]c12
- T/C [1]: 109 % of control
- T/C (dose: 50.0 mg/kg/injection, schedule: Q01DX009 (ip), vehicle: saline sonified): 109 % of control
- T/C (dose: 100.0 mg/kg/injection, schedule: Q04DX003 (ip), vehicle: Klucel (hydroxypropylcellulose) (HPC)): 122 % of control

Structure (SMILES): CC(C)c1cc(/C=C2/OC(=O)c3ccccc32)cc(C(C)C)c1O
- T/C (dose: 100.0 mg/kg/injection, schedule: Q04DX002 (ip), vehicle: saline): 101 % of control
- T/C (dose: 200.0 mg/kg/injection, schedule: Q04DX002 (ip), vehicle: saline): 100 % of control
- T/C (dose: 400.0 mg/kg/injection, schedule: Q04DX002 (ip), vehicle: saline): 106 % of control

Structure (SMILES): CC(=O)OC/C=C(\C)CC(/C=C(C)/C=C/C1=C(C)CCCC1(C)C)S(=O)(=O)c1ccccc1 (configuration not stated)
- T/C [2]: 100 % of control
- T/C [1]: 106 % of control
- T/C [3]: 90 % of control and 93 % of control
- T/C [4]: 92 % of control

Structure (SMILES): COc1ccc2c(c1OC)C1N(C)CCc3cc4c(cc3C1(OC)C2=O)OCO4 (configuration not stated)
- T/C [5]: 93 % of control
- T/C [6]: 88 % of control
- T/C [7]: 93 % of control

Structure (SMILES): Cc1nn(-c2ccccc2)c(SC(C)(C)C)c1C=NCCN=Cc1c(C)nn(-c2ccccc2)c1SC(C)(C)C
- T/C (dose: 3.75 mg/kg/injection, schedule: Q01DX005 (ip), vehicle: Klucel (hydroxypropylcellulose) (HPC)): 100 % of control
- T/C (dose: 7.5 mg/kg/injection, schedule: Q01DX005 (ip), vehicle: Klucel (hydroxypropylcellulose) (HPC)): 98 % of control
- T/C (dose: 15.0 mg/kg/injection, schedule: Q01DX005 (ip), vehicle: Klucel (hydroxypropylcellulose) (HPC)): 100 % of control

Structure (SMILES): O=C1CCCC2=C1C1(OC3C=CC=CN23)C(=O)c2ccccc2C1=O (configuration not stated)
- T/C (dose: 50.0 mg/kg/injection, schedule: Q01DX005 (ip), vehicle: saline with Tween-80): 103 % of control
- T/C [8]: 97 % of control
- T/C [9]: 92 % of control

Structure (SMILES): Cn1nnnc1SCC1=C(C(=O)O)N2C(=O)C(NC(=O)C(OC=O)c3ccccc3)C2SC1 (configuration not stated)
- T/C [10]: 100 % of control
- T/C [11]: 97 % of control
- T/C (dose: 200.0 mg/kg/injection, schedule: Q01DX009 (ip), vehicle: saline): 104 % of control

Structure (SMILES): COC(=O)c1nc(=S)[nH]c(C(=O)OC)c1C(=O)c1ccc(O)c(OC)c1
- T/C [12]: 104 % of control
- T/C [13]: 90 % of control

Structure (SMILES): C=C1C(=O)OC2/C=C(\C)CC(O)/C=C(\C)CC(OC(=O)/C(=C\C)COC(C)=O)C12 (configuration not stated)
- T/C [14]: 98 % of control
- T/C [2]: 97 % of control
- T/C [1]: 104 % of control
- T/C [3]: 104 % of control

Structure (SMILES): COc1ccc(-n2c(O)c(N=Nc3nc4ccc([N+](=O)[O-])cc4s3)c(=O)n(-c3ccccc3)c2=S)cc1
- T/C [12]: 103 % of control
- T/C [13]: 100 % of control
- T/C (dose: 240.0 mg/kg/injection, schedule: Q01DX005 (ip), vehicle: Klucel (hydroxypropylcellulose) (HPC)): 91 % of control

Structure (SMILES): COC(=O)c1ccccc1NC(=O)N1CC1
- T/C (dose: 50.0 mg/kg/injection, schedule: Q01DX005 (ip), vehicle: DMSO): 105 % of control
- T/C (dose: 100.0 mg/kg/injection, schedule: Q01DX005 (ip), vehicle: DMSO): 118 % of control

Structure (SMILES): CCc1nc(N)nc(N)c1-c1ccc([N+](=O)[O-])c(Cl)c1
- T/C [8]: 152 % of control
- T/C [9]: 93 % of control

Structure (SMILES): CCNCc1c(C)[nH]c2ccc(N(C)C)cc2c1=O
- T/C [10]: 92 % of control
- T/C [11]: 108 % of control

Structure (SMILES): c1cc(-n2nnc3cnccc32)ccn1
- T/C [15]: 91 % of control
- T/C [16]: 100 % of control
- T/C (dose: 6.25 mg/kg/injection, schedule: Q04DX003 (ip), vehicle: saline): 109 % of control
- T/C (dose: 12.5 mg/kg/injection, schedule: Q01DX009 (ip), vehicle: saline): 98 % of control
- T/C (dose: 12.5 mg/kg/injection, schedule: Q04DX003 (ip), vehicle: saline): 104 % of control
- T/C (dose: 25.0 mg/kg/injection, schedule: Q01DX009 (ip), vehicle: suspension in saline): 109 % of control
- T/C (dose: 25.0 mg/kg/injection, schedule: Q04DX003 (ip), vehicle: saline): 100 % of control

Structure (SMILES): CS(=O)(=O)OCCC[Se]Cc1ccccc1C[Se]CCCOS(C)(=O)=O
- T/C [5]: 93 % of control
- T/C [6]: 91 % of control

Structure (SMILES): O=C(N/N=C/c1ccccc1O)C(=O)NC1CC1
- T/C [3]: 92 % of control
- T/C [17]: 91 % of control
- T/C [4]: 91 % of control

Structure (SMILES): c1ccc2c(c1)Cc1nc3ccccc3nc1-2
- T/C [17]: 100 % of control
- T/C [4]: 95 % of control
- T/C (dose: 400.0 mg/kg/injection, schedule: Q01DX009 (ip), vehicle: saline with Tween-80): 100 % of control

Structure (SMILES): O=C1CSC(=O)N1c1cccc(Cl)c1
- T/C (dose: 1.56 mg/kg/injection, schedule: Q01DX009 (ip), vehicle: saline): 99 % of control and 97 % of control
- T/C [15]: 100 % of control and 103 % of control
- T/C [16]: 90 % of control and 96 % of control
- T/C [3]: 106 % of control
- T/C [10]: 89 % of control

Structure (SMILES): Oc1ccc(C2(c3ccc(O)c(Cl)c3)CC3CCC2C3)cc1Cl (configuration not stated)
- T/C (dose: 0.79 mg/kg/injection, schedule: Q01DX009 (ip), vehicle: saline with Tween-80): 103 % of control and 111 % of control
- T/C (dose: 1.56 mg/kg/injection, schedule: Q01DX009 (ip), vehicle: saline with Tween-80): 103 % of control and 116 % of control
- T/C (dose: 3.12 mg/kg/injection, schedule: Q01DX009 (ip), vehicle: saline with Tween-80): 103 % of control and 105 % of control
- T/C [14]: 111 % of control and 94 % of control
- T/C [2]: 97 % of control
- T/C [1]: 98 % of control

Structure (SMILES): CCOC(=O)C(C)NC(=O)OCc1ccccc1 (configuration not stated)
- T/C [5]: 101 % of control
- T/C [6]: 112 % of control
- T/C [7]: 116 % of control

Structure (SMILES): NS(=O)(=O)c1ccc(N=Cc2cnc3ccccc3n2)cc1
- T/C (dose: 5.0 mg/kg/injection, schedule: Q01DX009 (ip), vehicle: saline): 97 % of control
- T/C (dose: 10.0 mg/kg/injection, schedule: Q01DX009 (ip), vehicle: saline): 101 % of control
- T/C (dose: 20.0 mg/kg/injection, schedule: Q01DX009 (ip), vehicle: saline): 97 % of control

Structure (SMILES): c1ccc(Cn2cccc/c2=N/C(=NC2CCCCC2)NC2CCCCC2)cc1
- T/C (dose: 1.56 mg/kg/injection, schedule: Q01DX001 (ip), vehicle: Klucel (hydroxypropylcellulose) (HPC)): 105 % of control
- T/C (dose: 3.12 mg/kg/injection, schedule: Q01DX001 (ip), vehicle: Klucel (hydroxypropylcellulose) (HPC)): 99 % of control
- T/C (dose: 6.25 mg/kg/injection, schedule: Q01DX001 (ip), vehicle: Klucel (hydroxypropylcellulose) (HPC)): 99 % of control
- T/C (dose: 25.0 mg/kg/injection, schedule: Q01DX001 (ip), vehicle: Klucel (hydroxypropylcellulose) (HPC)): 98 % of control
